ChEMBL document CHEMBL3885881, “DrugMatrix”

Species on record: Rattus norvegicus
Experiment: DrugMatrix - Regimen: Daily Repeat
Type: toxicity, organism-based, Sprague-Dawley
Parameters: regimen Daily Repeat, gender Male, age 6-8 weeks
Settings: in vivo, po, route oral GAVAGE, vehicle .5 % CMC; for ABSOLUTE BASOPHIL / ABSOLUTE EOSINOPHIL / ABSOLUTE LYMPHOCYTE / ABSOLUTE MONOCYTE / ABSOLUTE SEGMENTED NEUTROPHIL / BASOPHIL / EOSINOPHIL / ERYTHROCYTE COUNT / HEMATOCRIT / HEMOGLOBIN / LEUKOCYTE COUNT / LYMPHOCYTE / MEAN CORPUSCULAR HEMOGLOBIN / MEAN CORPUSCULAR HEMOGLOBIN CONCENTRATION / MEAN CORPUSCULAR VOLUME / MONOCYTE / NEUTROPHIL / NUCLEATED RED BLOOD CELLS / PLATELET COUNT: tissue Blood; for ALANINE AMINOTRANSFERASE / ALBUMIN / ALKALINE PHOSPHATASE / ASPARTATE AMINOTRANSFERASE / BLOOD UREA NITROGEN / CARBON DIOXIDE / CHLORIDE / CHOLESTEROL / CREATINE PHOSPHOKINASE / CREATININE / GLUCOSE / LACTATE DEHYDROGENASE / LIPASE / PHOSPHORUS / POTASSIUM / SODIUM / TOTAL BILIRUBIN / TOTAL PROTEIN / URIC ACID: tissue Plasma
[1] = 10 mg/kg, 72 h, dose level Low, time 3 day
[2] = 10 mg/kg, 120 h, dose level Low, time 5 day
[3] = 1200 mg/kg, 72 h, dose level High, time 3 day
[4] = 1200 mg/kg, 120 h, dose level High, time 5 day

CC(C)c1nc(CN(C)C(=O)N[C@H](C(=O)N[C@@H](Cc2ccccc2)C[C@H](O)[C@H](Cc2ccccc2)NC(=O)OCc2cncs2)C(C)C)cs1 [RITONAVIR]
ABSOLUTE BASOPHIL [1]: 0 CELLS/uL
ABSOLUTE EOSINOPHIL [1]: 0 CELLS/uL
ABSOLUTE LYMPHOCYTE [1]: 16363 CELLS/uL
ABSOLUTE MONOCYTE [1]: 133.67 CELLS/uL
ABSOLUTE SEGMENTED NEUTROPHIL [1]: 2103.33 CELLS/uL
BASOPHIL [1]: 0%
EOSINOPHIL [1]: 0%
ERYTHROCYTE COUNT [1]: 5.55 x10E6/uL
HEMATOCRIT [1]: 35.17%
HEMOGLOBIN [1]: 13.33 G/DL
LEUKOCYTE COUNT [1]: 18.6 x10E3/uL
LYMPHOCYTE [1]: 88%
MEAN CORPUSCULAR HEMOGLOBIN [1]: 24.03 pg
MEAN CORPUSCULAR HEMOGLOBIN CONCENTRATION [1]: 37.93 G/DL
MEAN CORPUSCULAR VOLUME [1]: 63.37 fL
MONOCYTE [1]: 0.67%
NEUTROPHIL [1]: 11.33%
NUCLEATED RED BLOOD CELLS [1]: 0 /100WBC
PLATELET COUNT [1]: 1318 x10E3/uL
ALANINE AMINOTRANSFERASE [1]: 56.67 u/L
ALBUMIN [1]: 4.1 G/DL
ALKALINE PHOSPHATASE [1]: 325.33 u/L
ASPARTATE AMINOTRANSFERASE [1]: 93.33 u/L
BLOOD UREA NITROGEN [1]: 14 mg/dL
CARBON DIOXIDE [1]: 29 mmol/L
CHLORIDE [1]: 101 MEQ/L
CHOLESTEROL [1]: 90.67 mg/dL
CREATINE PHOSPHOKINASE [1]: 297.33 u/L
CREATININE [1]: 0.23 mg/dL
GLUCOSE [1]: 152 mg/dL
LACTATE DEHYDROGENASE [1]: 319.33 u/L
LIPASE [1]: 10.67 u/L
PHOSPHORUS [1]: 12.83 mg/dL
POTASSIUM [1]: 6.89 MEQ/L
SODIUM [1]: 145.67 MEQ/L
TOTAL BILIRUBIN [1]: 0.13 mg/dL
TOTAL PROTEIN [1]: 5.77 G/DL
URIC ACID [1]: 1.67 mg/dL
ABSOLUTE BASOPHIL [2]: 0 CELLS/uL
ABSOLUTE EOSINOPHIL [2]: 71.67 CELLS/uL
ABSOLUTE LYMPHOCYTE [2]: 18278.33 CELLS/uL
ABSOLUTE MONOCYTE [2]: 105.33 CELLS/uL
ABSOLUTE SEGMENTED NEUTROPHIL [2]: 1678 CELLS/uL
BASOPHIL [2]: 0%
EOSINOPHIL [2]: 0.33%
ERYTHROCYTE COUNT [2]: 6.19 x10E6/uL
HEMATOCRIT [2]: 37%
HEMOGLOBIN [2]: 13.97 G/DL
LEUKOCYTE COUNT [2]: 20.13 x10E3/uL
LYMPHOCYTE [2]: 90.33%
MEAN CORPUSCULAR HEMOGLOBIN [2]: 22.63 pg
MEAN CORPUSCULAR HEMOGLOBIN CONCENTRATION [2]: 37.73 G/DL
MEAN CORPUSCULAR VOLUME [2]: 59.93 fL
MONOCYTE [2]: 0.67%
NEUTROPHIL [2]: 8.67%
NUCLEATED RED BLOOD CELLS [2]: 0 /100WBC
PLATELET COUNT [2]: 1433.33 x10E3/uL
ALANINE AMINOTRANSFERASE [2]: 50.67 u/L
ALBUMIN [2]: 4.4 G/DL
ALKALINE PHOSPHATASE [2]: 359.67 u/L
ASPARTATE AMINOTRANSFERASE [2]: 81.67 u/L
BLOOD UREA NITROGEN [2]: 15.33 mg/dL
CARBON DIOXIDE [2]: 27.67 mmol/L
CHLORIDE [2]: 102 MEQ/L
CHOLESTEROL [2]: 79.67 mg/dL
CREATINE PHOSPHOKINASE [2]: 237 u/L
CREATININE [2]: 0.21 mg/dL
GLUCOSE [2]: 148.67 mg/dL
LACTATE DEHYDROGENASE [2]: 188 u/L
LIPASE [2]: 9.33 u/L
PHOSPHORUS [2]: 13.17 mg/dL
POTASSIUM [2]: 6.85 MEQ/L
SODIUM [2]: 145.83 MEQ/L
TOTAL BILIRUBIN [2]: 0.17 mg/dL
URIC ACID [2]: 1.63 mg/dL
ABSOLUTE BASOPHIL [3]: 0 CELLS/uL
ABSOLUTE EOSINOPHIL [3]: 142.67 CELLS/uL
ABSOLUTE LYMPHOCYTE [3]: 15572 CELLS/uL
ABSOLUTE MONOCYTE [3]: 334 CELLS/uL
ABSOLUTE SEGMENTED NEUTROPHIL [3]: 651.33 CELLS/uL
BASOPHIL [3]: 0%
EOSINOPHIL [3]: 0.67%
ERYTHROCYTE COUNT [3]: 5.91 x10E6/uL
HEMATOCRIT [3]: 36.97%
HEMOGLOBIN [3]: 14.63 G/DL
LEUKOCYTE COUNT [3]: 16.7 x10E3/uL
LYMPHOCYTE [3]: 93.67%
MEAN CORPUSCULAR HEMOGLOBIN [3]: 24.77 pg
MEAN CORPUSCULAR HEMOGLOBIN CONCENTRATION [3]: 39.6 G/DL
MEAN CORPUSCULAR VOLUME [3]: 62.53 fL
MONOCYTE [3]: 2%
NEUTROPHIL [3]: 3.67%
NUCLEATED RED BLOOD CELLS [3]: 0 /100WBC
PLATELET COUNT [3]: 1284 x10E3/uL
ALANINE AMINOTRANSFERASE [3]: 50 u/L
ALBUMIN [3]: 3.97 G/DL
ALKALINE PHOSPHATASE [3]: 314 u/L
ASPARTATE AMINOTRANSFERASE [3]: 75 u/L
BLOOD UREA NITROGEN [3]: 13.67 mg/dL
CARBON DIOXIDE [3]: 31.67 mmol/L
CHLORIDE [3]: 100.33 MEQ/L
CHOLESTEROL [3]: 86.67 mg/dL
CREATINE PHOSPHOKINASE [3]: 162.33 u/L
CREATININE [3]: 0.16 mg/dL
GLUCOSE [3]: 153.67 mg/dL
LACTATE DEHYDROGENASE [3]: 134.67 u/L
LIPASE [3]: 10.33 u/L
PHOSPHORUS [3]: 11.4 mg/dL
POTASSIUM [3]: 5.99 MEQ/L
SODIUM [3]: 144.87 MEQ/L
TOTAL BILIRUBIN [3]: 0.2 mg/dL
TOTAL PROTEIN [3]: 5.67 G/DL
URIC ACID [3]: 1.33 mg/dL
ABSOLUTE BASOPHIL [4]: 0 CELLS/uL
ABSOLUTE EOSINOPHIL [4]: 0 CELLS/uL
ABSOLUTE LYMPHOCYTE [4]: 16888.67 CELLS/uL
ABSOLUTE MONOCYTE [4]: 206.67 CELLS/uL
ABSOLUTE SEGMENTED NEUTROPHIL [4]: 871.33 CELLS/uL
BASOPHIL [4]: 0%
EOSINOPHIL [4]: 0%
ERYTHROCYTE COUNT [4]: 6.28 x10E6/uL
HEMATOCRIT [4]: 37.7%
HEMOGLOBIN [4]: 14.77 G/DL
LEUKOCYTE COUNT [4]: 17.97 x10E3/uL
LYMPHOCYTE [4]: 94%
MEAN CORPUSCULAR HEMOGLOBIN [4]: 23.53 pg
MEAN CORPUSCULAR HEMOGLOBIN CONCENTRATION [4]: 39.17 G/DL
MEAN CORPUSCULAR VOLUME [4]: 60.2 fL
MONOCYTE [4]: 1%
NEUTROPHIL [4]: 5%
NUCLEATED RED BLOOD CELLS [4]: 0 /100WBC
PLATELET COUNT [4]: 1230 x10E3/uL
ALANINE AMINOTRANSFERASE [4]: 59.67 u/L
ALBUMIN [4]: 4 G/DL
ALKALINE PHOSPHATASE [4]: 219 u/L
ASPARTATE AMINOTRANSFERASE [4]: 104.67 u/L
BLOOD UREA NITROGEN [4]: 16 mg/dL
CARBON DIOXIDE [4]: 22.33 mmol/L
CHLORIDE [4]: 106 MEQ/L
CHOLESTEROL [4]: 79 mg/dL
CREATINE PHOSPHOKINASE [4]: 482 u/L
CREATININE [4]: 0.24 mg/dL
GLUCOSE [4]: 155.33 mg/dL
LACTATE DEHYDROGENASE [4]: 180.33 u/L
LIPASE [4]: 10.67 u/L
PHOSPHORUS [4]: 10.5 mg/dL
POTASSIUM [4]: 7.89 MEQ/L
SODIUM [4]: 148.6 MEQ/L
TOTAL BILIRUBIN [4]: 0.17 mg/dL
TOTAL PROTEIN [4]: 6.03 G/DL
URIC ACID [4]: 1.8 mg/dL
